# Reference: US12714728B2, “Methods for the production of cardiac fibroblasts” (FUJIFILM Cellular Dynamics, Inc., priority 2022, dated 2026)
# pIC50: −log10 of the molar value.
# What was measured:
# [1] = tested on: isogenic tri-culture cardiac microtissues (iPSC-derived cardiomyocytes, endothelial cells, cardiac fibroblasts); test: Calcium transient / inotropic response of isogenic tri-culture cardiac microtissues; type: cell-based, human; settings: for calcium amplitude inotropic response with increased CF content: DIV 14, 10,000 total cells, 20% endothelial cells, varying cardiac fibroblast content
# Excerpt: For the cardiac tri-culture microtissue assay, cryopreserved iPSC-derived cell types were combined in a specific ratio and formed into microtissues in microwell plates (FIG. 5A). Microtissues containing 65% iCell Cardiomyocytes, 20% iCell Endothelial cells, and 15% iPSC derived cardiac fibroblasts are shown in FIG. 5B. After 1-2 days, the microtissues were contracting.
# Microtissues were fed a co-culture medium (Table 8) to support all three cell types. […] Microtissues were generated from three donor lines 11713, 01279, and 01434. Microtissues contained either iPSC-derived cardiomyocytes only or were tri-culture, containing isogenic iPSC-derived cardiomyocytes, iPSC-derived endothelial cells, and iPSC-derived cardiac fibroblasts. All microtissues were assayed for response to isoproterenol on Day 14 of culture. […] This response was in tri-culture microtissues from all three donor lines, in two independently produced lots of cardiac fibroblasts from donor 01434, and in microtissues containing cardiac fibroblasts from two independently derived clones from donor 11713 (11713.008 and 11713.847).
# Response to dobutamine (DOB), digoxin (DIG), isoproterenol (ISO), and epinephrine (EPI) were assessed at DIV 14 on cardiac tri-culture microtissues comprised of 10,000 total cells and 20% iCell Endothelial Cells and iCell Cardiomyocytes and varying concentrations of iPSC derived cardiac fibroblasts (CF). […] (FIG. 6B).
# (§1) Tri-culture microtissues were made from Normal Healthy Control (NHC) and isogenic LMNA-L35P iPSC-derived cell types. Fourteen days post microtissue formation, microtissues were challenged with isoproterenol.
# [2] = tested on: iPS cells (WT1+ epicardial cells); test: Epicardial (WT1+) progenitor induction from iPS cells, CHIR dose titration / ABC; type: cell-based, human
# Experimental: Cardiac mesoderm cells were then dissociated and contacted with a low concentration of Wnt inhibitor, XAV939, (Table 4) for two days to be specified into a WT1 epicardial lineage (FIG. 3A). The percentage of epicardial cells were measured in single CHIR, ABC, and double CHIR conditions. Epicardial induction with single CHIR or ABC step produced a mixed population of epicardial cells and cardiomyocytes. The percentage of WT1+ epicardial cells ranged from 30% WT1 to 90% WT1. These epicardial progenitors were used directly for cardiac fibroblast induction without additional passaging or purification of epicardial cells. A dose titration of CHIR was performed on iPS cells. […] A dose of 6 μM CHIR on Day 1 generated a population of 60% WT1 epicardial progenitor cells that have characteristic cobblestone morphology by Day 14 (FIG. 3C). […] When Activin and BMP were added with the single CHIR, the epicardial cells retained a flattened cobble stone morphology and dark, round nucleus. Cell-cell borders became less pronounced. There was no need to passage the epicardial cells. […] This was visible by increased cell numbers, decreased cell size, and more elongated morphology.
# [3] = tested on: isogenic LMNA-L35P iPSC-derived tri-culture microtissues; test: Calcium transient response of LMNA-L35P disease model tri-culture microtissues; type: cell-based, human; settings: LMNA-L35P disease model microtissue; fourteen days post formation
# Excerpt: as §1
# [4] = tested on: ROCK1/ROCK2; settings: competing with ATP; cited from earlier work
# [5] = tested on: epicardial progenitors from the ABC method; test: Cardiac fibroblast differentiation in serum with varying basic FGF, CD29 positive cells; type: cell-based, human; settings: increasing concentrations of basic FGF, serum-containing medium
# Experimental: Cardiac fibroblasts were induced in serum containing conditions on Day 25. The cells were fed DMEM-Low glucose, 10% FBS, Ascorbic Acid, and 200 ng/mL basic FGF and purified through successive passaging (Table 6). Cardiac fibroblasts were >85% positive for TE-7 and CD29 and quiescent (i.e., less than 5% αSMA) (FIG. 4A).
# [6] = tested on: iPSC derived cardiac fibroblasts; test: Activation of iPSC-derived cardiac fibroblasts with TGFβ; type: cell-based, human
# Experimental: The cardiac fibroblasts were thawed and plated on vitronectin-coated plates at 10 k/cm^2 and activated with TGFβ. TGFβ was added at 20 ng/mL or 40 ng/mL to activate cardiac fibroblasts on Day 2, with a media change on Day 4. On Day 5, media supernatants were collected and analyzed for fibronectin secretion by a Human FN ELISA Kit Cat #BMS2028. On Day 3 and Day 5, cardiac fibroblasts were harvested and counted by ViCell-XR. After 5 days cells were collected for flow cytometry.
compound,measurement,setting,value
C[C@H]1O[C@@H](O[C@H]2[C@@H](O)C[C@H](O[C@H]3[C@@H](O)C[C@H](O[C@H]4CC[C@@]5(C)[C@H](CC[C@@H]6[C@@H]5C[C@@H](O)[C@]5(C)[C@@H](C7=CC(=O)OC7)CC[C@]65O)C4)O[C@@H]3C)O[C@@H]2C)C[C@H](O)[C@@H]1O [digoxin],calcium amplitude inotropic response with increased CF content,[1],increased calcium amplitude inotropic response
CC(CCc1ccc(O)cc1)NCCc1ccc(O)c(O)c1 (centres unmarked) [dobutamine],calcium amplitude inotropic response with increased CF content,[1],increased calcium amplitude inotropic response
"Cc1c[nH]c(-c2cnc(NCCNc3ccc(C#N)cn3)nc2-c2ccc(Cl)cc2Cl)n1 [CHIR, CHIR99021]",WT1 epicardial progenitor cells,"[2]; 6 μM CHIR on Day 1, single CHIR method",60%
same,effect of increasing dose on percentage of WT1+ epicardial cells,"[2]; dose on Day 1, single CHIR method, read on Day 9",did not increase the percentage of WT1+ epicardial cells
CC(C)NCC(O)c1ccc(O)c(O)c1 (centres unmarked) [isoproterenol],calcium transient amplitude,"[1]; 100 nM isoproterenol, Normal Healthy Control microtissues, fourteen days post microtissue formation",increase in calcium transient amplitude
same,calcium transient amplitude response to isoproterenol,"[1]; Day 14 of culture, three donor lines",increase in calcium transient amplitude
same,beat rate by calcium transient,[1]; in the presence of isoproterenol,increase in beat rate
same,response to isoproterenol (calcium transient amplitude),[3],did not respond
C[C@@H](N)[C@H]1CC[C@H](C(=O)Nc2ccncc2)CC1 [Y-27632],pIC50,[4],6.10
CNC[C@H](O)c1ccc(O)c(O)c1 [epinephrine],calcium amplitude inotropic response with increased CF content,[1],increased calcium amplitude inotropic response
basic FGF: basic fibroblast growth factor used for cardiac fibroblast induction,percentage of CD29 positive cells,[5],increase the percentage of CD29 positive cells
TGFβ,gene expression by quantitative real-time PCR,"[6]; 20 ng/mL TGFβ for 4 days, single CHIR and double CHIR cardiac fibroblasts","increased POSTN, DDR2, COL1A1, COL1A2, GJA1, and ACTA2 expression"
same,alpha smooth muscle actin expressing population (flow cytometry),"[6]; TGFβ 20 ng/mL or 40 ng/mL added Day 2, cells collected after 5 days",alpha smooth muscle actin expressing population was seen to emerge
same,fibronectin secretion,[6]; cardiac fibroblasts from serum-containing and serum-free induction,increased fibronectin secretion
